Assay results taken from patent US20230357179A1, “RAF KINASE INHIBITORS AND METHODS OF USE THEREOF” (Deciphera Pharmaceuticals, LLC, priority 2021, published 2023).

Key:
[1] = target: T1, B-Raf kinase (Homo sapiens, UniProt P15056); experiment: Biochemical assay for B-Raf.1 (coupled pyruvate kinase/lactate dehydrogenase); conditions: read-out: BRAF.1 IC50
T1 construct: GST (N); purchased Sigma
Method in brief: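 Reaction rates over the 4–5 h window of a continuous 6 h, 30 °C read were converted to percent inhibition and fitted for IC50. B-Raf (0.13 nM) phosphorylated 30.1 nM MEK with 1 mM ATP; ADP coupled via PK/LDH to NADH loss at 340 nm, 1% DMSO final.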

[2] = target: T2, B-Raf (V600E) kinase (Homo sapiens, UniProt P15056, V600E); experiment: Biochemical assay for B-Raf (V600E).1 (coupled pyruvate kinase/lactate dehydrogenase); conditions: read-out: BRAF V600E.1 IC50
T2 construct: B-Raf (V600E) residues 416-766 with a; GST (N); purchased SignalChem
T2 sequence (P15056 416-766 V600E): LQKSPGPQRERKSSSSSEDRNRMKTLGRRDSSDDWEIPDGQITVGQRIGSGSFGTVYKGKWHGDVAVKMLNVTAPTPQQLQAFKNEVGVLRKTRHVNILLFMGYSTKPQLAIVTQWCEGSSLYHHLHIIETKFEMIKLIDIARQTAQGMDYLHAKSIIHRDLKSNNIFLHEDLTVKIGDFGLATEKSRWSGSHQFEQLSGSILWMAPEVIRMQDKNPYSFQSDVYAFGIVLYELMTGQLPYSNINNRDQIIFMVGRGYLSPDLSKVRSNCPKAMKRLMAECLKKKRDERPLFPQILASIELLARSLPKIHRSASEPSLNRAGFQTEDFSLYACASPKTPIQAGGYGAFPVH
Method in brief: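 IC50 came from four-parameter sigmoidal fits of percent inhibition, using reaction rates over 3-4 h. Continuous A340 reading (6 h, 30 °C) of a pyruvate kinase/lactate dehydrogenase-coupled reaction: B-Raf V600E 0.03 nM, MEK 30.1 nM, ATP 1 mM, Tris pH 7.5, 1% DMSO.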

[3] = tested on: Miapaca-2 cells; experiment: MiaPaca-2 cell proliferation assay (1), resazurin, 96-well; type: cell-based; conditions: Homo sapiens, MIA PaCa-2, inhibition of cell proliferation
Experimental: MiaPaca-2 Cell Proliferation Assay (1)
Miapaca-2 cells (catalog #CRL-1420) are obtained from the American Type Culture Collect (ATTC, Manassas, VA). Briefly, cells were grown in DMEM supplemented with 10% characterized fetal bovine serum (Invitrogen, Carlsbad, CA), 2.5% New Zealand sourced horse serum and 1% Penicillin/Streptomycin/L-Glutamine at 37° C., 5% CO2, and 95% humidity. Cells are expanded until reaching 70-95% confluency at which point they are subcultured or harvested for assay use. A serial dilution of test compound is dispensed into a 96-well black clear bottom plate in triplicate. Three thousand cells are added per well in 200 μL complete growth medium in the 96-well plate. Plates are incubated for 67-72 hours at 37° C., 5% CO2, and 95% humidity. At the end of the incubation, 40 μL of a 440 μM solution of resazurin (Sigma, St. Louis, MO) in PBS is added to each well of the plate and plates are incubated for an additional 5-6 hours at 37° C., 5% CO2, and 95% humidity. Plates are read on a Synergy2 or equivalent reader (Biotek, Winooski VT) using an excitation of 540 nm and an emission of 600 nm. Data is analyzed using Prism software (GraphPad, San Diego, CA) to calculate IC50 values.

T1 sequence (P15056 416-766): as the sequence (P15056 416-766 V600E) above, with E185V counted along it

IC50 [1] [nM]	IC50 [2] [nM]	IC50 [3] [nM]	Structure (SMILES)
100 to 500	≤ 100	–	COC[C@H]1CCN(C(=O)Nc2cnc(C)c(-c3cc(OCCO)nc(-c4ccnc(NC(=O)OC)c4)c3)c2)C1 [Example 152]
500 to 1000	≤ 100	–	COC(=O)Nc1cc(-c2cnnc(-c3cc(NC(=O)NCCC(C)(C)OC)cnc3C)c2)ccn1 [Example 153]
≤ 100	≤ 100	–	COC(=O)Nc1cc(-c2cc(-c3cc(NC(=O)NCCC4(C)CC4)cnc3C)cc(OCCO)n2)ccn1 [Example 151]
> 1000	≤ 100	1000 to 10000	CNC(=O)c1cc(-c2cnnc(-c3cc(NC(=O)NCCC(C)(C)OC)c(F)cc3C)c2)ccn1 [Example 123]
≤ 100	≤ 100	1000 to 10000	COC(=O)Nc1nccc(-c2cc(OCCO)cc(-c3cc(NC(=O)NCCC4(C)CC4)c(F)cc3C)c2)n1 [Example 122]
500 to 1000	≤ 100	–	COC(=O)Nc1cc(-c2cc(-c3cc(NC(=O)NC[C@H]4CCO4)c(F)cc3C)cc(OCCO)n2)ccn1 [Example 96]
≤ 100	≤ 100	1000 to 10000	COC(=O)Nc1cc(-c2nccc(-c3cc(NC(=O)NCCC(C)(C)F)c(F)cc3C)n2)ccn1 [Example 147]
≤ 100	≤ 100	–	COC(=O)Nc1cc(-c2nccc(-c3cc(NC(=O)NCCC(C)(C)OC)c(F)cc3C)n2)ccn1 [Example 129]
≤ 100	≤ 100	–	Cc1cc(F)c(NC(=O)NCCC2(C)CC2)cc1-c1cnnc(-c2ccnc(NC(=O)C3CC3)c2)c1 [Example 168]
100 to 500	≤ 100	1000 to 10000	COC(=O)Nc1cc(-c2cnnc(-c3cc(NC(=O)NCCC(C)(C)OC)c(F)cc3C)c2)ccn1 [Example 140]
100 to 500	≤ 100	1000 to 10000	CNC(=O)c1cc(-c2cnnc(-c3cc(NC(=O)NCCC(C)(C)F)c(F)cc3C)c2)ccn1 [Example 132]
100 to 500	≤ 100	–	COC(=O)Nc1cc(-c2cc(-c3cc(NC(=O)NCCC(C)(C)OC)c(F)cc3F)ccn2)ccn1 [Example 163]
≤ 100	≤ 100	–	CNC(=O)c1cc(-c2cc(-c3cc(NC(=O)NCCC4(C)CC4)c(F)cc3C)cc(OCCO)n2)ccn1 [Example 164]
≤ 100	≤ 100	–	COC(=O)Nc1cc(-c2cc(-c3cc(NC(=O)N[C@H]4C[C@](C)(F)C4)cnc3C)cc(OCCO)n2)ccn1 [Example 157]
> 1000	100 to 500	–	COC(=O)Nc1cc(-c2cc(-c3cc(NC(=O)NCCN4CCC4)c(F)cc3C)cc(OCCO)n2)ccn1 [Example 125]
≤ 100	≤ 100	–	Cc1ncc(NC(=O)NCCC(C)(C)F)cc1-c1ccnc(-c2ccnc(NC(=O)C3CC3)c2)n1 [Example 136]
≤ 100	≤ 100	1000 to 10000	COC(=O)Nc1cc(-c2cnnc(-c3cc(NC(=O)NCCC(C)(C)F)c(F)cc3C)c2)ccn1 [Example 141]
100 to 500	≤ 100	–	COC[C@@H]1CCN(C(=O)Nc2cnc(C)c(-c3cc(OCCO)nc(-c4ccnc(NC(=O)OC)c4)c3)c2)C1 [Example 160]
≤ 100	≤ 100	–	CCC(C)CCNC(=O)Nc1cnc(C)c(-c2ccnc(-c3ccnc(NC(=O)C4CC4)c3)c2)c1 (centres unmarked) [Example 124]
≤ 100	≤ 100	–	Cc1ncc(NC(=O)NC2CC(C)(C)C2)cc1-c1cc(OCCO)nc(-c2ccnc(NC(=O)C3CC3)c2)c1 [Example 126]
≤ 100	≤ 100	–	Cc1cc(F)c(NC(=O)NCCC(C)(C)F)cc1-c1cccc(-c2cc(NC(=O)C3CC3)ncn2)c1 [Example 127]
≤ 100	≤ 100	–	COC(=O)Nc1cc(-c2cc(-c3cc(NC(=O)NCCC4COC4)c(F)cc3C)cc(OCCO)n2)ccn1 [Example 155]
100 to 500	≤ 100	1000 to 10000	COC(C)(C)CCNC(=O)Nc1cnc(C)c(-c2cc(-c3ccnc(NC(=O)C4CC4)c3)cnn2)c1 [Example 121]
100 to 500	≤ 100	–	COC(=O)Nc1cc(-c2cccc(-c3cc(NC(=O)NCCC4(OC)CC4)cnc3C)c2)ncn1 [Example 138]

IC50 [1] [nM]	IC50 [2] [nM]	IC50 [3] [nM]	Structure (SMILES)
100 to 500	≤ 100	–	COC(=O)Nc1cc(-c2cc(-c3cc(NC(=O)N4CCC(C)(C)CC4)cnc3C)cc(OCCO)n2)ccn1 [Example 166]
≤ 100	≤ 100	–	Cc1cc(F)c(NC(=O)NC2CC(C)(C)C2)cc1-c1cc(OCCO)nc(-c2ccnc(NC(=O)C3CC3)c2)n1 [Example 167]
≤ 100	≤ 100	1000 to 10000	Cc1cc(F)c(NC(=O)NCCC(C)(C)C)cc1-c1cc(-c2ccnc(NC(=O)C3CC3)c2)cnn1 [Example 131]
≤ 100	≤ 100	–	Cc1ncc(NC(=O)NCCC2(C)CC2)cc1-c1ccnc(-c2ccnc(NC(=O)C3(C#N)CC3)c2)c1 [Example 169]
≤ 100	≤ 100	1000 to 10000	Cc1cc(F)c(NC(=O)NCCC(C)(C)F)cc1-c1cc(-c2ccnc(NC(=O)C3CC3)c2)cnn1 [Example 139]
≤ 100	≤ 100	–	COC(C)(C)CCNC(=O)Nc1cc(-c2ccnc(-c3ccnc(NC(=O)C4CC4)c3)c2)c(F)cc1F [Example 162]
≤ 100	≤ 100	1000 to 10000	Cc1ccc(NC(=O)NCCC(C)(C)C)cc1-c1cc(N2CCOCC2)nc(N2CCOCC2)c1 [Example 4]
> 1000	100 to 500	–	Cc1ncc(NC(=O)NCCN2CCC2)cc1-c1cc(OCCO)nc(-c2ccnc(NC(=O)C3CC3)c2)c1 [Example 172]
100 to 500	≤ 100	–	COC1(CCNC(=O)Nc2cnc(C)c(-c3ccnc(-c4ccnc(NC(=O)C5CC5)c4)n3)c2)CC1 [Example 137]
≤ 100	≤ 100	–	Cc1cc(F)c(NC(=O)NCCC(C)(C)F)cc1-c1ccnc(-c2ccnc(NC(=O)C3CC3)c2)c1 [Example 159]
> 1000	≤ 100	–	CNC(=O)c1cc(-c2cnnc(-c3cc(NC(=O)NCCC(C)(C)OC)cnc3C)c2)ccn1 [Example 154]
≤ 100	≤ 100	1000 to 10000	Cc1ncc(NC(=O)NCCC2(C)CC2)cc1-c1ccnc(-c2ccnc(NC(=O)C3CC3)c2)c1 [Example 118]
≤ 100	≤ 100	–	Cc1cc(F)c(NC(=O)NCCC(C)(C)F)cc1-c1ccnc(-c2ccnc(NC(=O)C3CC3)c2)n1 [Example 128]
≤ 100	≤ 100	1000 to 10000	COC(=O)Nc1cc(-c2cc(-c3cc(NC(=O)NCCC4(OC)CC4)c(F)cc3C)ccn2)ccn1 [Example 145]
500 to 1000	≤ 100	–	COC[C@@H]1CCN(C(=O)Nc2cc(-c3cc(-c4ccnc(NC(=O)OC)c4)cnn3)c(C)cc2F)C1 [Example 149]
500 to 1000	≤ 100	1000 to 10000	COC(=O)Nc1cc(-c2nccc(-c3cc(NC(=O)NCCC4(OC)CC4)cnc3C)n2)ccn1 [Example 143]
≤ 100	≤ 100	1000 to 10000	Cc1ncc(NC(=O)NCCC2(C)CC2)cc1-c1cc(OCCO)nc(-c2ccnc(NC(=O)C3CC3)c2)n1 [Example 133]
≤ 100	≤ 100	1000 to 10000	COC(C)(C)CCNC(=O)Nc1cc(-c2cc(-c3ccnc(NC(=O)C4CC4)c3)cnn2)c(C)cc1F [Example 142]
500 to 1000	≤ 100	1000 to 10000	COC[C@H]1CCN(C(=O)Nc2cc(-c3cc(-c4ccnc(NC(=O)OC)c4)cnn3)c(C)cc2F)C1 [Example 148]
100 to 500	≤ 100	–	COC(=O)Nc1cc(-c2nccc(-c3cc(NC(=O)NCCC4(C)CC4)cnc3C)n2)ccn1 [Example 135]
≤ 100	≤ 100	1000 to 10000	COC(=O)Nc1cc(-c2nccc(-c3cc(NC(=O)NCCC4(OC)CC4)c(F)cc3C)n2)ccn1 [Example 146]
100 to 500	≤ 100	–	Cc1ncc(NC(=O)NCCC(C)(C)F)cc1-c1nccc(-c2ccnc(NC(=O)C3CC3)c2)n1 [Example 130]
≤ 100	≤ 100	–	COC(=O)Nc1cc(-c2ccnc(-c3cc(NC(=O)NCCC(C)(C)OC)c(F)cc3C)n2)ccn1 [Example 171]
≤ 100	≤ 100	–	Cc1cc(F)c(NC(=O)NCCC2(C)CC2)cc1-c1ccnc(-c2ccnc(NC(=O)C3CC3)c2)c1 [Example 134]
